Data on 21 molecules can be found in PubChem BioAssay AID328 (DTP/NCI, 2004).

Where “and” joins values, the source holds several entries; their conditions need not be identical. Identical values can stand only once. Toxic doses and inconclusive results are not listed.

This assay relates to BDF1 mice, P388 leukemia ip, median survival T/C. The assay is described as follows: NCI In Vivo Anticancer Drug Screen. Data for tumor model P388 Leukemia (intraperitoneal) in B6D2F1 (BDF1) mice. To be noted: endpoint: median survival time, higher = longer survival. In a few lines:
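Reported as T/C, where T is the survival measurement in dosed animals and C the same measurement in vehicle controls.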

[1] abbreviates: dose: 100.0 mg/kg/injection, schedule: Q04DX003 (ip), vehicle: Klucel (hydroxypropylcellulose) (HPC).
[2] abbreviates: dose: 200.0 mg/kg/injection, schedule: Q04DX003 (ip), vehicle: Klucel (hydroxypropylcellulose) (HPC).
Where [3] appears, read: dose: 100.0 mg/kg/injection, schedule: Q01DX009 (ip), vehicle: saline.
The mark [4] stands for this setting: dose: 25.0 mg/kg/injection, schedule: Q01DX009 (ip), vehicle: saline with Tween-80.
The mark [5] stands for this setting: dose: 50.0 mg/kg/injection, schedule: Q01DX009 (ip), vehicle: saline with Tween-80.
The mark [6] stands for this setting: dose: 100.0 mg/kg/injection, schedule: Q01DX009 (ip), vehicle: saline with Tween-80.
Where [7] appears, read: dose: 50.0 mg/kg/injection, schedule: Q01DX009 (ip), vehicle: Klucel (hydroxypropylcellulose) (HPC).
[8] abbreviates: dose: 200.0 mg/kg/injection, schedule: Q01DX009 (ip), vehicle: saline with Tween-80.
Setting [9] is: dose: 100.0 mg/kg/injection, schedule: Q04DX003 (ip), vehicle: saline with Tween-80.
[10] abbreviates: dose: 12.5 mg/kg/injection, schedule: Q01DX009 (ip), vehicle: Klucel (hydroxypropylcellulose) (HPC).
The mark [11] stands for this setting: dose: 25.0 mg/kg/injection, schedule: Q01DX009 (ip), vehicle: Klucel (hydroxypropylcellulose) (HPC).

As to `COC(OC)c1[nH]c(=S)[nH]c(=O)c1Cc1cc(C)ccc1C`, the T/C by setting is: (dose: 50.0 mg/kg/injection, schedule: Q04DX003 (ip), vehicle: Klucel (hydroxypropylcellulose) (HPC)) 95 % of control; (dose: 100.0 mg/kg/injection, schedule: Q01DX001 (ip), vehicle: Klucel (hydroxypropylcellulose) (HPC)) 104 % of control; under setting [1], 100 % of control; (dose: 200.0 mg/kg/injection, schedule: Q01DX001 (ip), vehicle: Klucel (hydroxypropylcellulose) (HPC)) 104 % of control; under setting [2], 95 % of control; (dose: 400.0 mg/kg/injection, schedule: Q01DX001 (ip), vehicle: Klucel (hydroxypropylcellulose) (HPC)) 109 % of control.
Regarding `C=CCN1C(=O)CNC1=O`, the T/C runs as follows: (dose: 50.0 mg/kg/injection, schedule: Q01DX009 (ip), vehicle: saline) 93 % of control; under setting [3], 100 % of control; (dose: 200.0 mg/kg/injection, schedule: Q01DX009 (ip), vehicle: saline) 101 % of control.
As to `CCN1CCCC(Nc2nc(C(Cl)(Cl)Cl)nc3cc(Cl)ccc23)C1` (stereo unspecified), the T/C under setting [4] is 109 % of control, the T/C under setting [5] was 113 % of control and the T/C under setting [6] was 104 % of control.
In the case of `CC(C)COC(=O)NCCF`, the T/C by setting is: (dose: 6.25 mg/kg/injection, schedule: Q01DX009 (ip), vehicle: saline with Tween-80) 107 % of control; (dose: 12.5 mg/kg/injection, schedule: Q01DX009 (ip), vehicle: saline with Tween-80) 112 % of control; under setting [4], 120 % of control.
Take `NC(=O)NCCCC(N)C(=O)O` (stereo unspecified): the T/C by setting is: (dose: 50.0 mg/kg/injection, schedule: Q01DX010 (ip), vehicle: saline) 94 % of control; (dose: 100.0 mg/kg/injection, schedule: Q01DX010 (ip), vehicle: saline) 94 % of control; (dose: 200.0 mg/kg/injection, schedule: Q01DX010 (ip), vehicle: saline) 89 % of control.
On to `CCOC(=O)C(CCC(=O)OC)C1=NC(C)(C)CC(C)O1` (stereo unspecified), for which the T/C was 104 % of control (dose: 50.0 mg/kg/injection, schedule: Q01DX001 (ip), vehicle: saline sonified); 100 % of control (dose: 100.0 mg/kg/injection, schedule: Q01DX001 (ip), vehicle: saline sonified); 100 % of control (dose: 200.0 mg/kg/injection, schedule: Q01DX001 (ip), vehicle: saline sonified).
Take `O=C(O)C(O)C(O)C(O)C(O)CO.[Mn]` (stereo unspecified): the T/C is 116 % of control (dose: 66.0 mg/kg/injection, schedule: Q01DX009 (ip), vehicle: saline) and 116 % of control under setting [3].
On to `Cc1ccc(C2NC(=S)N3C(c4ccc(C)cc4)NC(=S)N23)cc1` (stereo unspecified), for which the T/C is 98 % of control under setting [7]; 111 % of control (dose: 100.0 mg/kg/injection, schedule: Q01DX009 (ip), vehicle: Klucel (hydroxypropylcellulose) (HPC)); 111 % of control (dose: 200.0 mg/kg/injection, schedule: Q01DX009 (ip), vehicle: Klucel (hydroxypropylcellulose) (HPC)); 154 % of control (dose: 400.0 mg/kg/injection, schedule: Q01DX009 (ip), vehicle: Klucel (hydroxypropylcellulose) (HPC)); 112 % of control (dose: 400.0 mg/kg/injection, schedule: Q01DX009 (ip), vehicle: saline); 120 % of control (dose: 600.0 mg/kg/injection, schedule: Q01DX009 (ip), vehicle: saline).
Regarding `COc1ccc(Nc2c3ccccc3nc3ccccc23)cc1`, the T/C under setting [5] is 208 % of control.
`Cc1cc(C)cc(C(C)C)c1`: the T/C by setting is: under setting [5], 101 % of control; under setting [6], 116 % of control; under setting [8], 122 % of control.
Take `C/C=C/C1CC(OC)=CC(=O)O1` (stereo unspecified): the T/C was 106 % of control under setting [9]; 92 % of control (dose: 200.0 mg/kg/injection, schedule: Q04DX003 (ip), vehicle: saline with Tween-80); 97 % of control (dose: 400.0 mg/kg/injection, schedule: Q04DX003 (ip), vehicle: saline with Tween-80).
`O=C(NCCN1CC1)C(=O)NCCN1CC1`: the T/C is 250 % of control (dose: 1.56 mg/kg/injection, schedule: Q04DX003 (ip), vehicle: saline with Tween-80); 173 % of control (dose: 3.12 mg/kg/injection, schedule: Q04DX003 (ip), vehicle: saline with Tween-80); 105 % of control (dose: 6.25 mg/kg/injection, schedule: Q04DX003 (ip), vehicle: saline with Tween-80).
Turning to `NC(N)=Nc1ccc(C(=O)Oc2ccc(OC(=O)c3cccc(N=C(N)N)c3)cc2)cc1`, the T/C (dose: 50.0 mg/kg/injection, schedule: Q01DX009 (ip), vehicle: water) was 96 % of control; the T/C (dose: 50.0 mg/kg/injection, schedule: Q04DX003 (ip), vehicle: water) is 103 % of control; the T/C (dose: 100.0 mg/kg/injection, schedule: Q01DX009 (ip), vehicle: water) was 96 % of control; the T/C (dose: 100.0 mg/kg/injection, schedule: Q04DX003 (ip), vehicle: water) is 94 % of control; the T/C (dose: 200.0 mg/kg/injection, schedule: Q01DX009 (ip), vehicle: water) is 99 % of control; the T/C (dose: 200.0 mg/kg/injection, schedule: Q04DX003 (ip), vehicle: water) was 100 % of control. Further, the T/C by setting is: (dose: 400.0 mg/kg/injection, schedule: Q01DX009 (ip), vehicle: water) 114 % of control; (dose: 400.0 mg/kg/injection, schedule: Q04DX003 (ip), vehicle: water) 105 % of control.
Regarding `CN(C)c1ccc(/C=N/NC(N)=S)nc1`, the T/C is 159 % of control (dose: 44.0 mg/kg/injection, schedule: Q04DX003 (ip), vehicle: saline with Tween-80); 150 % of control and 163 % of control (dose: 66.0 mg/kg/injection, schedule: Q04DX003 (ip), vehicle: saline with Tween-80); 177 % of control under setting [9]; 213 % of control (dose: 150.0 mg/kg/injection, schedule: Q04DX003 (ip), vehicle: saline with Tween-80).
For `O=S(=O)(OCC#CCOS(=O)(=O)c1ccc(Cl)c(Cl)c1)c1ccc(Cl)c(Cl)c1`, the T/C runs as follows: under setting [10], 99 % of control; under setting [11], 112 % of control; (dose: 35.0 mg/kg/injection, schedule: Q01DX009 (ip), vehicle: Klucel (hydroxypropylcellulose) (HPC)) 93 % of control; under setting [7], 87 % of control; (dose: 75.0 mg/kg/injection, schedule: Q01DX009 (ip), vehicle: Klucel (hydroxypropylcellulose) (HPC)) 101 % of control.
As for `O=[N+]([O-])c1ccc(NS(=O)(=O)c2cc(Cl)ccc2Cl)c([N+](=O)[O-])c1`, the T/C was 105 % of control under setting [5], 102 % of control under setting [6] and 110 % of control under setting [8].
Consider `COC1=CC(=O)c2c(O)cc(OC)cc2C1=O`, for which the T/C reads like this: (dose: 1.25 mg/kg/injection, schedule: Q01DX009 (ip), vehicle: saline with Tween-80) 120 % of control; (dose: 2.5 mg/kg/injection, schedule: Q01DX009 (ip), vehicle: saline with Tween-80) 95 % of control.
Consider `COCn1cnc2c(F)ncnc21`, for which the T/C (dose: 6.25 mg/kg/injection, schedule: Q01DX009 (ip), vehicle: Klucel (hydroxypropylcellulose) (HPC)) was 86 % of control; the T/C (dose: 6.25 mg/kg/injection, schedule: Q04DX003 (ip), vehicle: saline) was 95 % of control; the T/C under setting [10] is 90 % of control; the T/C (dose: 12.5 mg/kg/injection, schedule: Q04DX003 (ip), vehicle: saline) was 109 % of control; the T/C under setting [11] was 86 % of control; the T/C (dose: 25.0 mg/kg/injection, schedule: Q04DX003 (ip), vehicle: saline) was 100 % of control.
On to `O=C1c2ccccc2C(=O)N1N1C(=O)c2ccccc2C1=O`, for which the T/C is 100 % of control under setting [6]; 90 % of control under setting [8]; 100 % of control (dose: 400.0 mg/kg/injection, schedule: Q01DX009 (ip), vehicle: saline with Tween-80).
For the molecule `COc1cc2ccc3c(c2cc1OC)C=[N+](C)CC3`, the T/C reads like this: under setting [5], 108 % of control; (dose: 100.0 mg/kg/injection, schedule: Q04DX003 (ip), vehicle: saline) 118 % of control; (dose: 200.0 mg/kg/injection, schedule: Q04DX003 (ip), vehicle: saline) 118 % of control; (dose: 400.0 mg/kg/injection, schedule: Q04DX003 (ip), vehicle: saline) 90 % of control.
In the case of `COc1ccc(NC(=O)Oc2ccccc2Cc2ccccc2)cc1`, the T/C is 100 % of control under setting [1] and 95 % of control under setting [2].
